For data set [1] the following is noted: cited from earlier work.
Data set [2] relates to gastric acid secretion. The experiment in a line: gastric secretion in the rat, modified Shay procedure of pylorus ligation. The format is in vivo. The settings on record: 32 mg/kg, interduodenally (i.d.), male Charles River rats, four hours after ligation. How it is done:
The procedures for these tests and the results for some of the compounds of the invention are presented at the end of the following examples, which will serve to illustrate the present invention.
The procedure for testing gastric secretion in the rat, a modification of the procedure of Shay et al., Gastroenterology, 26, 906-13 (1954) is carried out as follows.
Male Charles River rats weighing 200-300 grams are deprived of food but not water for 24 hours prior to use. Water is, however, withheld during the experiment. The rats are weighed, anesthetized, and the pylorus ligated according to the method of Shay et al. Treatment or vehicle control is then administered interduodenally (i.d.). Rats are housed 2/cage and sacrificed with CO2 four hours after ligation. The stomachs are removed, rinsed, and contents emptied into a graduated centrifuge tube. The tubes are centrifuged for 20 minutes at 2,000 RPM and the volume of gastric juice recorded. Any samples obviously contaminated by feces, food or hemolysis are eliminated. An aliquot of each is frozen for later analysis of Na^+, K^+ and Cl^- concentration. The pH is measured and 1 ml of gastric juice is titrated with 0.1N NaOH to a pH of 7.0-7.4. Titratable acid output is calculated in microequivalents and the percent inhibition of acid output is calculated as follows: [formula]

Data set [3] deals with T1, histamine H2 receptor (Cavia porcellus, UniProt P47747).
T1 construct: from tissue; host or cells: guinea pig right atrium (isolated, spontaneously beating)
The data set can be described thus: guinea pig heart atrium test: inhibition of histamine-induced positive chronotropic response in the spontaneously beating right atrium. The settings on record: read-out: pA2 Value (apparent dissociation constant of the H2 antagonist) (converted). Here is the method: The guinea pig heart atrium test is carried out as follows.
A guinea pig right atrium is suspended at 1 g tension (isometric) in the thermostatically controlled (32° C.) tissue bath (10 ml) containing oxygenated (95% O2; 5% CO2) Krebs-Haenseleit buffer (pH 7.4). The tissue is allowed to stabilize over 1 hour. Individual contractions are recorded with a force-displacement transducer through a strain gauge coupler. A control dose-response curve to histamine in the above described tissue bath is obtained after which the tissue is washed 3 times and allowed to re-equilibrate to basal rate. The test compound is added to the tissue bath at the desired final concentration. Thirty minutes after addition of the compound, a fresh histamine dose response curve is again obtained. Then the response to histamine in the presence of antagonist is compared to the histamine control response. This procedure is repeated, using fresh tissues, for each concentration of antagonist tested.

The subject of data set [4] is H2 histamine receptors. The settings on record: background statement; cited from earlier work.

The structures appear in SMILES notation. Where a name gives a salt, the structure may show the parent alone.

T1 sequence (P47747 whole entry): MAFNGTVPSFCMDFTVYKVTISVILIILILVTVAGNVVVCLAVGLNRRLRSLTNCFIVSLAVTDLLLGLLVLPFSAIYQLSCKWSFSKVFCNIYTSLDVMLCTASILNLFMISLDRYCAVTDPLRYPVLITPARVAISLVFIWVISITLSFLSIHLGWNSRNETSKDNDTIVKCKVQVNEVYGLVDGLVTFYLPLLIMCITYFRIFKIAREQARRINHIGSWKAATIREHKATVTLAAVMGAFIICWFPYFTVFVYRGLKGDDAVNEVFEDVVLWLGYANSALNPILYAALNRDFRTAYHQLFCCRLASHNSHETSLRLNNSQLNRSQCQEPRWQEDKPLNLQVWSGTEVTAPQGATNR

With `CN/C(=N/CCSCc1nc[nH]c1C)NC#N` [Cimetidine], the confusional states result in data set [1] (elderly patients) is “tendency to cause confusional states in elderly patients”. In data set [1] (patients), the anti-androgenic activity entry is given as “anti-androgenic activity” and the duration of action result is reported as “short duration of action”.
Take `Nc1cc(OCCCNC2=NS(=O)(=O)c3ccccc32)ccn1` [Example 3, N-[3-[(2-amino-4-pyridinyl)oxy]propyl]-1,2-benzisothiazol-3-amine 1,1 dioxide, hydrochloride, hemiethanolate]: the “% Inhibition (of acid output)” value in data set [2] came to 57%. Moreover, the Kb in data set [3] is 10 nM.
Take `CNC(=NC#N)NCCSCc1csc(N=C(N)N)n1` [tiotidine]: in data set [4], the “selective H2 antagonist activity versus cimetidine” value is “greater activity than cimetidine”.
As to `Nc1ncccc1OCCCNC1=NS(=O)(=O)c2ccccc21` [Example 2, N-[3-[(2-amino-3-pyridinyl)oxy]propyl]-1,2-benzisothiazol-3-amine 1,1-dioxide, hydrochloride, hemihydrate], in data set [3], the Kb is 10 nM.

The values are drawn from US4461901A, “Pyridyl containing 1,2-benzisothiazole-3-amine derivatives” (American Home Products Corporation, priority 1983, dated 1984).
